# From PubChem BioAssay AID2060483 (Molecular Pharmacology Branch, DTP, NCI, 2025)
# Tested on: K24384-001-R-PDC complex spheroids, viability
# Assay: Anticancer human tumor K24384-001-R-PDC patient-derived pancreatic adenocarcinoma cell line growth inhibition [GQUAD]
# Settings: for IC50: curve of first compound; for viability, T/C: stronger effect = lower value
# From the text: DNA G-quadruplex Stabilizer Agents in Combinations in Complex Spheroids
# A high-throughput screen of multi-cell type tumor spheroids was designed to identify active combinations of DNA G-quadruplex stabilizer agents and targeted small molecules. Complex spheroids include a stromal component modeled by human endothelial cells (HUVEC) and fibroblasts modeled by human mesenchymal stem cells (MSCs). The concentration ranges selected for each drug and investigational agent were based upon clinically achievable concentrations if the clinical Cmax of the agent was known.
# Compounds. The drugs and investigational agents: pidnarulex (CX-5461; NSC782164), APTO-253 (NSC789042), BRACO-19 (NSC847499), peposertib (NSC802822), ceralasertib (NSC780249), elimusertib (NSC800525), camonsertib (NSC841442), AZD-1390 (NSC803789), olaparib (NSC753686), talazoparib (NSC767125), ART-558 (NSC835418), sotorasib (NSC818433), MRTX-1133 (NSC836407), SN-38 (NSC673596), topotecan (NSC609699), etoposide (NSC141540), doxorubicin (NSC123127), gemcitabine (NSC613327), 5-fluorouracil (NSC19893), paclitaxel (NSC125973), vemurafenib (NSC761431), panobinostat (NSC761190), R-306465 (JNJ-16241199; NSC773264), adavosertib (NSC754352), TP-3654 (NSC805149), carboplatin (NSC241240), KSQ-4279 (NSC840948), and staurosporine (NSC755774) were obtained from the National Cancer Institute (NCI) Developmental Therapeutics Program Chemical Repository (34). The FDA-approved anticancer drug set is available from the NCI Developmental Therapeutics Program. […] The stock solutions were prepared in dimethyl sulfoxide (DMSO, Sigma-Aldrich, St. Louis, MO, cat. D2650) at 800-fold the tested concentration and stored at -70 degrees C prior to their use. All drugs and investigational agents were tested over a range starting from a high concentration at or near the clinical Cmax and decreasing in half-log increments. If the clinical Cmax for an agent had not been determined, the highest concentration tested was 10 microM.
# 2.3 Cell Culture. All cells were maintained in an incubator at 37 degrees C and 5% CO2 with 95% humidity. The PDC lines were cultured according to standard operating procedures established by the NCI PDMR. All PDCs were thawed and cultured in Matrigel-coated flasks prepared with a working solution of 1X Ham's F-12 nutrient mix, without supplementation (Invitrogen, cat. 11765054), 100 U/mL penicillin-streptomycin (Invitrogen, cat. 15140122), and 2.5% Matrigel (Corning Inc., cat. 354248) for the first three passages. The 857933-349-R-J2-PDC line was cultured in 6C/Colon 1B media, which includes advanced DMEM/F-12 (Thermo Fisher Scientific, cat. 12634028), 10 mM HEPES (Thermo Fisher Scientific, cat. 15630080), 1X GlutaMAX supplement (Thermo Fisher Scientific, cat. 35050061), 0.1 mg/mL primocin (InvivoGen, cat. ant-pm-2), 10% defined fetal bovine serum, heat inactivated (HyClone Laboratories Inc., cat. SH30070.03HI), 50% L-WRN conditioned media (ATCC, cat. CRL-3276), 1.25 mM N-Acetyl-L-cysteine (Sigma-Aldrich, cat. A9165), 10 mM nicotinamide (Sigma-Aldrich, cat. N0636), 1X B-27 supplement (Thermo Fisher Scientific, cat. 17504044), 1X N-2 supplement (Thermo Fisher Scientific, cat. 17502048), 10 microM Y-27632 dihydrochloride (Tocris Bioscience, cat. 1254), and 50 ng/mL human EGF recombinant protein (Thermo Fisher Scientific, cat. PHG0311). The 485176-168-R4-J1-PDC line was cultured in Panc media, which includes all 6C/Colon 1B media components plus 100 ng/mL human FGF-10 (Thermo Fisher Scientific, cat. 100-26), 500 nM SB-431542 (Selleckchem, cat. S1067), and gastrin (Tocris, cat. 3006).
# […]
# [1] = second compound 0.0316 µM, first compound 0.0316 µM
# [2] = second compound 0.0316 µM, first compound 0.316 µM
# [3] = second compound 0.1 µM, first compound 0.0316 µM
# [4] = second compound 0.1 µM, first compound 0.316 µM
# [5] = second compound 0.316 µM, first compound 0.0316 µM
# [6] = second compound 0.316 µM, first compound 0.316 µM
# [7] = second compound 1 µM, first compound 0.0316 µM
# [8] = second compound 1 µM, first compound 0.316 µM
# [9] = second compound 3.16 µM, first compound 0.0316 µM
# [10] = second compound 3.16 µM, first compound 0.316 µM
# [11] = second compound 10 µM, first compound 0.0316 µM
# [12] = second compound 10 µM, first compound 0.316 µM
# 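Note: spheroids exposed to compounds for seven days.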
compound,measurement,setting,value
Cc1[nH]c2ccccc2c1CCNCc1ccc(/C=C/C(=O)NO)cc1 + CN(C)c1ccc(Nc2c3ccc(NC(=O)CCN4CCCC4)cc3nc3cc(NC(=O)CCN4CCCC4)ccc23)cc1,IC50,second compound 0.0316 µM,139 nM
same,IC50,second compound 0.1 µM,103 nM
same,IC50,second compound 0.316 µM,101 nM
same,IC50,second compound 1 µM,109 nM
same,IC50,second compound 3.16 µM,99.1 nM
same,IC50,second compound 10 µM,83.7 nM
same,"viability, T/C","second compound 0.0316 µM, first compound 0.000999 µM",106%
same,"viability, T/C","second compound 0.0316 µM, first compound 0.00316 µM",99%
same,"viability, T/C","second compound 0.0316 µM, first compound 0.00999 µM",101%
same,"viability, T/C",[1],105%
same,"viability, T/C","second compound 0.0316 µM, first compound 0.0999 µM",67.5%
same,"viability, T/C",[2],6.39%
same,"viability, T/C","second compound 0.1 µM, first compound 0.000999 µM",113%
same,"viability, T/C","second compound 0.1 µM, first compound 0.00316 µM",106%
same,"viability, T/C","second compound 0.1 µM, first compound 0.00999 µM",107%
same,"viability, T/C",[3],105%
same,"viability, T/C","second compound 0.1 µM, first compound 0.0999 µM",51%
same,"viability, T/C",[4],7.07%
same,"viability, T/C","second compound 0.316 µM, first compound 0.000999 µM",104%
same,"viability, T/C","second compound 0.316 µM, first compound 0.00316 µM",89.3%
same,"viability, T/C","second compound 0.316 µM, first compound 0.00999 µM",95.3%
same,"viability, T/C",[5],100%
same,"viability, T/C","second compound 0.316 µM, first compound 0.0999 µM",50.4%
same,"viability, T/C",[6],4.91%
same,"viability, T/C","second compound 1 µM, first compound 0.000999 µM",93.5%
same,"viability, T/C","second compound 1 µM, first compound 0.00316 µM",100%
same,"viability, T/C","second compound 1 µM, first compound 0.00999 µM",114%
same,"viability, T/C",[7],103%
same,"viability, T/C","second compound 1 µM, first compound 0.0999 µM",53.4%
same,"viability, T/C",[8],5.91%
same,"viability, T/C","second compound 3.16 µM, first compound 0.000999 µM",96.4%
same,"viability, T/C","second compound 3.16 µM, first compound 0.00316 µM",101%
same,"viability, T/C","second compound 3.16 µM, first compound 0.00999 µM",104%
same,"viability, T/C",[9],94.6%
same,"viability, T/C","second compound 3.16 µM, first compound 0.0999 µM",49.7%
same,"viability, T/C",[10],6.33%
same,"viability, T/C","second compound 10 µM, first compound 0.000999 µM",90.7%
same,"viability, T/C","second compound 10 µM, first compound 0.00316 µM",91.7%
same,"viability, T/C","second compound 10 µM, first compound 0.00999 µM",101%
same,"viability, T/C",[11],97.1%
same,"viability, T/C","second compound 10 µM, first compound 0.0999 µM",41.8%
same,"viability, T/C",[12],6.78%
COc1ccc([C@@H](O)c2cc(-c3ncnc4cc(N5CCOCC5)ccc34)c(F)cc2Cl)nn1 + Cc1[nH]c2ccc(F)cc2c1-c1nc2c3cccnc3c3ncccc3c2[nH]1,IC50,second compound 0.0316 µM,2990 nM
same,IC50,second compound 0.1 µM,2480 nM
same,IC50,second compound 0.316 µM,4280 nM
same,IC50,second compound 1 µM,3380 nM
same,IC50,second compound 3.16 µM,2100 nM
same,IC50,second compound 10 µM,1690 nM
same,"viability, T/C",[1],100%
same,"viability, T/C","second compound 0.0316 µM, first compound 0.1 µM",89.6%
same,"viability, T/C",[2],68.3%
same,"viability, T/C","second compound 0.0316 µM, first compound 1 µM",64.6%
same,"viability, T/C","second compound 0.0316 µM, first compound 3.16 µM",49.1%
same,"viability, T/C","second compound 0.0316 µM, first compound 10 µM",38.6%
same,"viability, T/C",[3],79.7%
same,"viability, T/C","second compound 0.1 µM, first compound 0.1 µM",95.4%
same,"viability, T/C",[4],92.7%
same,"viability, T/C","second compound 0.1 µM, first compound 1 µM",73%
same,"viability, T/C","second compound 0.1 µM, first compound 3.16 µM",44.5%
same,"viability, T/C","second compound 0.1 µM, first compound 10 µM",31.9%
same,"viability, T/C",[5],101%
same,"viability, T/C","second compound 0.316 µM, first compound 0.1 µM",115%
same,"viability, T/C",[6],99.4%
same,"viability, T/C","second compound 0.316 µM, first compound 1 µM",66.8%
same,"viability, T/C","second compound 0.316 µM, first compound 3.16 µM",65.1%
same,"viability, T/C","second compound 0.316 µM, first compound 10 µM",28.4%
same,"viability, T/C",[7],81.7%
same,"viability, T/C","second compound 1 µM, first compound 0.1 µM",99.5%
same,"viability, T/C",[8],83.9%
same,"viability, T/C","second compound 1 µM, first compound 1 µM",67.1%
same,"viability, T/C","second compound 1 µM, first compound 3.16 µM",54.1%
same,"viability, T/C","second compound 1 µM, first compound 10 µM",30.3%
same,"viability, T/C",[9],87.9%
same,"viability, T/C","second compound 3.16 µM, first compound 0.1 µM",76.8%
same,"viability, T/C",[10],58%
same,"viability, T/C","second compound 3.16 µM, first compound 1 µM",73.5%
same,"viability, T/C","second compound 3.16 µM, first compound 3.16 µM",41.7%
same,"viability, T/C","second compound 3.16 µM, first compound 10 µM",19.3%
same,"viability, T/C",[11],48.7%
same,"viability, T/C","second compound 10 µM, first compound 0.1 µM",85.9%
same,"viability, T/C",[12],58.9%
same,"viability, T/C","second compound 10 µM, first compound 1 µM",66.3%
same,"viability, T/C","second compound 10 µM, first compound 3.16 µM",32.3%
same,"viability, T/C","second compound 10 µM, first compound 10 µM",15.8%
